Measurements taken from the CheMixHub viscosity set.

Experiment: xn = mol fraction of the nth substance listed

COCCOCCOCCOCCOC + CC1COC(=O)O1
298.15 K, 101.33 kPa
Conditions | viscosity [mPa·s]
x1 = 0.0021 | 2.505
x1 = 0.0047 | 2.51
x1 = 0.0111 | 2.543
x1 = 0.0248 | 2.604
x1 = 0.0362 | 2.663
x1 = 0.0516 | 2.716
x1 = 0.0765 | 2.814
x1 = 0.1064 | 2.935
x1 = 0.1537 | 3.083
x1 = 0.1752 | 3.145
x1 = 0.2194 | 3.268
x1 = 0.259 | 3.355
x1 = 0.3006 | 3.428
x1 = 0.3585 | 3.506
x1 = 0.3967 | 3.56
x1 = 0.4451 | 3.59
x1 = 0.4956 | 3.602
x1 = 0.5433 | 3.607
x1 = 0.6081 | 3.609
x1 = 0.6396 | 3.615
x1 = 0.7173 | 3.588
x1 = 0.782 | 3.559
x1 = 0.8311 | 3.541
x1 = 0.896 | 3.498
x1 = 0.9403 | 3.466

C=CC(=O)OCC + CC#N
viscosity [mPa·s], 100 kPa
Conditions | 293.15 K | 298.15 K | 303.15 K | 308.15 K | 313.15 K | 318.15 K
x2 = 0.0611 | 0.5524 | 0.5177 | 0.4854 | 0.4506 | 0.4107 | 0.3704
x2 = 0.1197 | 0.5374 | 0.5035 | 0.472 | 0.4383 | 0.3998 | 0.3611
x2 = 0.1852 | 0.5211 | 0.4883 | 0.4578 | 0.4254 | 0.3886 | 0.3517
x2 = 0.2385 | 0.5081 | 0.4762 | 0.4467 | 0.4154 | 0.3801 | 0.3447
x2 = 0.2966 | 0.4944 | 0.4633 | 0.4348 | 0.4048 | 0.3711 | 0.3374
x2 = 0.3675 | 0.4781 | 0.4483 | 0.421 | 0.3926 | 0.3609 | 0.3293
x2 = 0.436 | 0.4629 | 0.4343 | 0.4082 | 0.3812 | 0.3515 | 0.3219
x2 = 0.4982 | 0.4496 | 0.4221 | 0.3971 | 0.3714 | 0.3435 | 0.3157
x2 = 0.5745 | 0.4339 | 0.4078 | 0.3841 | 0.3601 | 0.3343 | 0.3087
x2 = 0.6519 | 0.4188 | 0.394 | 0.3717 | 0.3493 | 0.3257 | 0.3024
x2 = 0.725 | 0.4054 | 0.3819 | 0.3608 | 0.34 | 0.3185 | 0.2973
x2 = 0.8185 | 0.3896 | 0.3678 | 0.3484 | 0.3296 | 0.3108 | 0.2924
x2 = 0.9145 | 0.3751 | 0.3552 | 0.3378 | 0.3213 | 0.3054 | 0.2901

CCCCn1cc[n+](C)c1.F[P-](F)(F)(F)(F)F + CC#N
298.15 K, 101 kPa
Conditions | viscosity [mPa·s]
x2 = 0.1938 | 92.9
x2 = 0.5896 | 8.84

Clc1ccccc1 + CC#N
viscosity [mPa·s], 101 kPa
Conditions | 298.15 K | 303.15 K | 308.15 K
x1 = 0.1038 | – | – | 0.352
x1 = 0.2009 | – | – | 0.3871
x1 = 0.3059 | – | – | 0.4245
x1 = 0.3949 | – | – | 0.4591
x1 = 0.4943 | – | – | 0.4944
x1 = 0.5946 | – | – | 0.5309
x1 = 0.6984 | – | – | 0.5671
x1 = 0.7956 | – | – | 0.6032
x1 = 0.8961 | – | – | 0.6352
x2 = 0.082 | 0.728 | 0.65 | –
x2 = 0.1809 | 0.681 | 0.609 | –
x2 = 0.267 | 0.642 | 0.577 | –
x2 = 0.3853 | 0.587 | 0.529 | –
x2 = 0.506 | 0.539 | 0.484 | –
x2 = 0.5957 | 0.501 | 0.459 | –
x2 = 0.6925 | 0.46 | 0.418 | –
x2 = 0.8175 | 0.406 | 0.373 | –
x2 = 0.9171 | 0.367 | 0.337 | –

CCOP(=O)(OCC)OCC + CC(=O)N(C)C
298.15 K, 101.3 kPa
Conditions | viscosity [mPa·s]
x1 = 0.1085 | 0.997
x1 = 0.2118 | 1.066
x1 = 0.3173 | 1.133
x1 = 0.4275 | 1.199
x1 = 0.5277 | 1.257
x1 = 0.5946 | 1.294
x1 = 0.7173 | 1.36
x1 = 0.8144 | 1.41
x1 = 0.8998 | 1.456

N#CCCCCC#N + CC(=O)N(C)C
303.15 K, 101.33 kPa
Conditions | viscosity [mPa·s]
x1 = 0.0999 | 0.9801
x1 = 0.2976 | 1.363
x1 = 0.3998 | 1.666
x1 = 0.4988 | 2.029
x1 = 0.5898 | 2.42
x1 = 0.699 | 2.965
x1 = 0.8491 | 3.85

CCCCn1cc[n+](C)c1.F[P-](F)(F)(F)(F)F + CC(C)=O
Conditions | viscosity [mPa·s]
298.15 K, 101 kPa, x2 = 0.1935 | 88.9

COC(C)(C)C + CC(C)CC(C)(C)C
Conditions | viscosity [mPa·s]
298.15 K, 101.33 kPa, x1 = 0.125 | 0.4633
298.15 K, 101.33 kPa, x1 = 0.2442 | 0.4465
298.15 K, 101.33 kPa, x1 = 0.3612 | 0.4301
298.15 K, 101.33 kPa, x1 = 0.462 | 0.4159
298.15 K, 101.33 kPa, x1 = 0.5638 | 0.4012
298.15 K, 101.33 kPa, x1 = 0.6579 | 0.3878
298.15 K, 101.33 kPa, x1 = 0.7533 | 0.3739
298.15 K, 101.33 kPa, x1 = 0.8375 | 0.3611
298.15 K, 101.33 kPa, x1 = 0.9182 | 0.3483
303.15 K, 101 kPa, x1 = 0.1862 | 0.436
303.15 K, 101 kPa, x1 = 0.3104 | 0.423
303.15 K, 101 kPa, x1 = 0.3813 | 0.416
303.15 K, 101 kPa, x1 = 0.4961 | 0.404
303.15 K, 101 kPa, x1 = 0.6203 | 0.39
303.15 K, 101 kPa, x1 = 0.6609 | 0.386
303.15 K, 101 kPa, x1 = 0.8925 | 0.36

Clc1ccccc1 + CC(C)CO
viscosity [mPa·s], 101.33 kPa
Conditions | x1 = 0.101 | x1 = 0.2015 | x1 = 0.2966 | x1 = 0.4019 | x1 = 0.4952 | x1 = 0.5979 | x1 = 0.6965 | x1 = 0.8009 | x1 = 0.8977
298.15 K | 2.558 | 1.975 | 1.593 | 1.301 | 1.124 | 0.9772 | 0.8803 | 0.8094 | 0.7666
313.15 K | 1.663 | 1.336 | 1.128 | 0.9531 | 0.8497 | 0.7614 | 0.7035 | 0.6586 | 0.633

COC(C)(C)C + CC(C)O
101 kPa
Conditions | viscosity [mPa·s]
293.15 K, x1 = 0.0305 | 2.145
298.15 K, x1 = 0.0702 | 1.595
303.15 K, x1 = 0.0702 | 1.395
308.15 K, x1 = 0.0914 | 1.145

COCCOCCOCCOCCOC + CC(C)O
viscosity [mPa·s], 101 kPa
Conditions | x1 = 0.0021 | x1 = 0.0042 | x1 = 0.00994 | x1 = 0.014 | x1 = 0.0152 | x1 = 0.025 | x1 = 0.0355 | x1 = 0.0719 | x1 = 0.0734 | x1 = 0.0994
298.15 K | 2.074 | 2.059 | 2.022 | 1.999 | 1.996 | 1.934 | 1.941 | 1.86 | 1.883 | 1.83
308.15 K | 1.555 | 1.549 | 1.53 | 1.52 | 1.52 | 1.512 | 1.484 | 1.465 | 1.489 | 1.444
318.15 K | 1.188 | 1.185 | 1.179 | 1.177 | 1.18 | 1.18 | 1.172 | 1.163 | 1.167 | 1.159
